Measured values published in patent US11542259B2, “Compounds for the treatment of kinase-dependent disorders” (Exelixis, Inc., priority 2018, dated 2023).

Columns and labels:
[1] = biological target: Human Met (residues R974-S1390 with A1209G and V1290L) (Homo sapiens, UniProt P08581); test: Human Met kinase assay (33P radiometric, KinaseProfiler); assay type: biochemical; details: 10 μM ATP, read-out: c-Met IC50
Met = Met (Homo sapiens (Human), UniProt P08581); test: Met autophosphorylation ELISA in PC-3 cells; assay type: cell-based; details: cellular, HGF stimulated, read-out: c-Met IC50
Met, sequence (P08581 25-1390): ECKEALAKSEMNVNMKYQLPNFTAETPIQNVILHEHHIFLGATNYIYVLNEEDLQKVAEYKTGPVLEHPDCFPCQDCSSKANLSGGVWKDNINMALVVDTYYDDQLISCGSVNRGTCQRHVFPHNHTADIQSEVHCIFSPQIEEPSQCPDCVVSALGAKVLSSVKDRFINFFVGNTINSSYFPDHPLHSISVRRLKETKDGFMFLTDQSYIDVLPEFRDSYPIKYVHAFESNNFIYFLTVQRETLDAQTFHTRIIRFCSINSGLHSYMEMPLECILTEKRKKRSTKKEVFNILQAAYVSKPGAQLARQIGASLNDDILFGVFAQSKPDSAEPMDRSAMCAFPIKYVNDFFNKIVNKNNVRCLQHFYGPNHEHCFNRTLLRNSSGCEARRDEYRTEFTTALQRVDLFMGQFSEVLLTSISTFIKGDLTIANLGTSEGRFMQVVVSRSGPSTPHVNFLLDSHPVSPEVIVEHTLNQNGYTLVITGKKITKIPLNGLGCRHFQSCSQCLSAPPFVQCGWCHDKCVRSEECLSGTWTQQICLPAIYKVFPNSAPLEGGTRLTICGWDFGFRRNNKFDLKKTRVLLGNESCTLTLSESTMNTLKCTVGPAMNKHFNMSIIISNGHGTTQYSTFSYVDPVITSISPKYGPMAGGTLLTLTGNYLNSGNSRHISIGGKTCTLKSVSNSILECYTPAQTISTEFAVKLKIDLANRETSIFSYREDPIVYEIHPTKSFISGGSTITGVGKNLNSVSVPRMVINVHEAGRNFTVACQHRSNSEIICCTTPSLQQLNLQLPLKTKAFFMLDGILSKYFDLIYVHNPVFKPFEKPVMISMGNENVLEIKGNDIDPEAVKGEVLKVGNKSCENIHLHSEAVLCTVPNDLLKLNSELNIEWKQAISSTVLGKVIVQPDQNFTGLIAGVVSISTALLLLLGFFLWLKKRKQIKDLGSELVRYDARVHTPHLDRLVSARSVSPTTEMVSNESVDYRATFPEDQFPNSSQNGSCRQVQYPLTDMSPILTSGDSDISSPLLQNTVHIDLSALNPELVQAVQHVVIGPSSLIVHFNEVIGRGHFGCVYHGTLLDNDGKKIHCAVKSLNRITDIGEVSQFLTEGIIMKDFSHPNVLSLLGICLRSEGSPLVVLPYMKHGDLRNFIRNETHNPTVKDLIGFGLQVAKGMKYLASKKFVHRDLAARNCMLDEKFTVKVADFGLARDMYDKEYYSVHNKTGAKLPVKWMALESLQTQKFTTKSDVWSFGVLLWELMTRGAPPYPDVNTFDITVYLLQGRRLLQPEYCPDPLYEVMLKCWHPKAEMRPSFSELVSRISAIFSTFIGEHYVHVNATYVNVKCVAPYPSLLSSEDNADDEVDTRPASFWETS
How it was run: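 Phospho-Met (panTyr) sandwich ELISA on lysates of PC-3 cells given 100 ng/mL HGF for 10 min after 1 h compound exposure (8-point curve, 0.3% DMSO) following 3 h serum starvation. Normalised to HGF-stimulated DMSO and reference-inhibitor wells; 4-parameter logistic IC50.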

[2] = biological target: Human Mer (residues R557-E882 with H628Q and R794A) (Homo sapiens (Human), UniProt Q12866); test: Human Mer kinase assay (33P radiometric, KinaseProfiler); assay type: biochemical; details: 10 μM ATP
Human Mer (residues R557-E882 with H628Q and R794A), sequence (Q12866 557-882, stated change not applied): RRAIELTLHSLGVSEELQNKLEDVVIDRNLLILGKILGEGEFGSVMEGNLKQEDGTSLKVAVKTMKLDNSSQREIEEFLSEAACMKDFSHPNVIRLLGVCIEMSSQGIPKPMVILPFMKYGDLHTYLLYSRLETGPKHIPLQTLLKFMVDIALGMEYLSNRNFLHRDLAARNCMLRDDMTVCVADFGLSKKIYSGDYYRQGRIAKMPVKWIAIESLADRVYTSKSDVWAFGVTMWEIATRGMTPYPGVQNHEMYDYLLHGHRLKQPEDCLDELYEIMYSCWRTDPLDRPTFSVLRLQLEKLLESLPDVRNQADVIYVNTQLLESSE

Mer = Mer (Homo sapiens (Human), UniProt Q12866); test: Mer autophosphorylation ELISA in transient transfected 293A cells; assay type: cell-based; details: cellular, MERTK transfected 293A cells
Mer, sequence (Q12866 21-999): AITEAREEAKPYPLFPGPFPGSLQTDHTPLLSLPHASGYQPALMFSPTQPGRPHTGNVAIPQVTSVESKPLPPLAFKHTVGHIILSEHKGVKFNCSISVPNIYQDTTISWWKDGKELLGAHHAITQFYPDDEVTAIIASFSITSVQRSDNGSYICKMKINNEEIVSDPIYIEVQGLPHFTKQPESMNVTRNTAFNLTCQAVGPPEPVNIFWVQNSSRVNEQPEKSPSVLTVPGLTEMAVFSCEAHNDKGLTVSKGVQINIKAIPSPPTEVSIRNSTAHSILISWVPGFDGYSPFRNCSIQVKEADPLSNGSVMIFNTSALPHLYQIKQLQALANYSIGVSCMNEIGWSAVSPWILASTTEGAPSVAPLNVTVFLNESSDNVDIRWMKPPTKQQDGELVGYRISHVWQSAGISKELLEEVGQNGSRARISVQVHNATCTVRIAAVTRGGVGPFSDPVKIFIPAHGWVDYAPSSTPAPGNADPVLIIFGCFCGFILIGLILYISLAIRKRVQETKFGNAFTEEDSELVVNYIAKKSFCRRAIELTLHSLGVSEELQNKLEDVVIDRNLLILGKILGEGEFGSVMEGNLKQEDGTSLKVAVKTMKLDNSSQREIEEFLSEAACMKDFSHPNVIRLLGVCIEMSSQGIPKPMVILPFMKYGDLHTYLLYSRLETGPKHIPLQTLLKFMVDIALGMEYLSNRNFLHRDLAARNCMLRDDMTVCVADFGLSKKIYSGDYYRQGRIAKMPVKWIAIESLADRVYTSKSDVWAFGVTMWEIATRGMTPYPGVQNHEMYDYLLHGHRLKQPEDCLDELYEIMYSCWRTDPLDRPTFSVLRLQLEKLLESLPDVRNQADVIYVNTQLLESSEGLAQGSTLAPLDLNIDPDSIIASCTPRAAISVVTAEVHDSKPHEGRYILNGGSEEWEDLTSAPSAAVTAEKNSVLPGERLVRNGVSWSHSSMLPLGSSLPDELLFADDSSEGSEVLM
How it was run: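 293A cells transiently transfected with human MERTK DNA, then treated 1 h with 8-point compound dilutions in serum-free medium (0.3% DMSO). Phospho-Mer in lysates quantified by sandwich ELISA against phospho-Mer standard; normalised to DMSO (100%) and reference inhibitor (0%), IC50 from 4-parameter logistic fit.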

Row | SMILES | IC50 [1] | IC50 (Met) | IC50 [2] | IC50 (Mer)
1 | COc1cc2nccc(Oc3ccc(NC(=O)C4(C(=O)Nc5ccc(F)cc5)CC4)cc3)c2cc1S(N)(=O)=O [Compound 206, 1-N′-(4-Fluorophenyl)-1-N-[4-(7-methoxy-6-sulfamoylquinolin-4-yl)oxyphenyl]cyclopropane-1,1-dicarboxamide] | ≤ 10 nM | ≤ 10 nM | ≤ 10 nM | 10 to 100 nM
2 | COc1cc2nccc(Oc3ccc(NC(=O)C4(C(=O)Nc5ccc(F)cc5)CC4)cc3)c2cc1-c1nnco1 [Compound 220, 1-N′-(4-Fluorophenyl)-1-N-[4-[7-methoxy-6-(1,3,4-oxadiazol-2-yl)quinolin-4-yl]oxyphenyl]cyclopropane-1,1-dicarboxamide] | ≤ 10 nM | 10 to 100 nM | ≤ 10 nM | ≤ 10 nM
